From ChEMBL document CHEMBL4002639, “DL-3-n-butylphthalide-Edaravone hybrids as novel dual inhibitors of amyloid-β aggregation and monoamine oxidases with high antioxidant potency for Alzheimer's therapy” (Bioorg Med Chem Lett, 2017)
Active and inactive are the calls of the source. The rule behind the calls is not given here.

Columns and labels:
[1] = molecular target: T1, Amine oxidase [flavin-containing] B (Homo sapiens, UniProt P27338)
T1 sequence (P27338 whole entry): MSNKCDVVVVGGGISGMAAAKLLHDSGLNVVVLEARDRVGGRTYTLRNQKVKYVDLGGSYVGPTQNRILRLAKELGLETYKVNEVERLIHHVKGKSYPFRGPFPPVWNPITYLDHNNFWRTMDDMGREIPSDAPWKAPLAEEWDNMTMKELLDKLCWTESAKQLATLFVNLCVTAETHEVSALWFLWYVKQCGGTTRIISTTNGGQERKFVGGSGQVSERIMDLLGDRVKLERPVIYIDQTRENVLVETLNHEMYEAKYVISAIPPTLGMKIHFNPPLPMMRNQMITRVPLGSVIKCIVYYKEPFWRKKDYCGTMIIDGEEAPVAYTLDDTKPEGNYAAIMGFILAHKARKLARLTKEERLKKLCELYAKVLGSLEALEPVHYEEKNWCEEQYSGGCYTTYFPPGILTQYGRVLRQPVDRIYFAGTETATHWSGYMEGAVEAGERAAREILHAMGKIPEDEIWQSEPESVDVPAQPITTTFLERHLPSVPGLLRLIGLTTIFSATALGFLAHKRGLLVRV
Description: Inhibition of recombinant human MAO-B using kynuramine as substrate after 30 mins by fluorescence assay

[2] = Antioxidant activity assessed as trolox equivalent of AAPH radical scavenging activity at 1 uM preincubated for 15 mins followed by AAPH addition measured every min for 90 mins by ORAC-FL assay; format: functional
Homo sapiens = species on record: Homo sapiens; assay: Selectivity index, ratio of IC50 for recombinant human MAO-A to IC50 for recombinant human MAO-B
[3] = molecular target: Amyloid-beta precursor protein (Homo sapiens) (UniProt P05067); assay: Inhibition of self-induced Amyloid beta (1 to 42) (unknown origin) aggregation at 25 uM after 24 hrs by thioflavin T-based fluorometric assay relative to control
[4] = molecular target: T2, Amine oxidase [flavin-containing] A (Homo sapiens, UniProt P21397); assay: Inhibition of recombinant human MAO-A using kynuramine as substrate after 30 mins by fluorescence assay
T2 sequence (P21397 whole entry): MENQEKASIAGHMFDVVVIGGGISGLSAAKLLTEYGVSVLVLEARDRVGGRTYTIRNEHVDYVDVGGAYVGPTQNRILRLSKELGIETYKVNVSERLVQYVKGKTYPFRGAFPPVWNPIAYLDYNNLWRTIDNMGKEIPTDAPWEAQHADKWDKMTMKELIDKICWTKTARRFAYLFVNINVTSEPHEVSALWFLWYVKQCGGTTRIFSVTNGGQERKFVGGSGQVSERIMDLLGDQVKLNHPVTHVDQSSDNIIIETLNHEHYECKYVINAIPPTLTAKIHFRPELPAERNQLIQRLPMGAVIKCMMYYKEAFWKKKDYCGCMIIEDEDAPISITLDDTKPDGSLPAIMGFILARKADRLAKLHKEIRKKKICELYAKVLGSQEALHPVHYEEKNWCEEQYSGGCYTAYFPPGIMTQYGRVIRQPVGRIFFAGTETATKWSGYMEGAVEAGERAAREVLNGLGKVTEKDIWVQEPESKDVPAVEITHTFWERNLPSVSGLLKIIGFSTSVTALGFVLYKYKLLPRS

[5] = molecular target: T2, Amine oxidase [flavin-containing] A; assay: Inhibition of recombinant human MAO-A at 10 uM using kynuramine as substrate after 30 mins by fluorescence assay; conditions: 0.5 h
[6] = molecular target: T1, Amine oxidase [flavin-containing] B; assay: Inhibition of recombinant human MAO-B at 10 uM using kynuramine as substrate after 30 mins by fluorescence assay; conditions: 0.5 h

Amyloid-beta precursor protein (Homo sapiens), sequence (P05067 whole entry): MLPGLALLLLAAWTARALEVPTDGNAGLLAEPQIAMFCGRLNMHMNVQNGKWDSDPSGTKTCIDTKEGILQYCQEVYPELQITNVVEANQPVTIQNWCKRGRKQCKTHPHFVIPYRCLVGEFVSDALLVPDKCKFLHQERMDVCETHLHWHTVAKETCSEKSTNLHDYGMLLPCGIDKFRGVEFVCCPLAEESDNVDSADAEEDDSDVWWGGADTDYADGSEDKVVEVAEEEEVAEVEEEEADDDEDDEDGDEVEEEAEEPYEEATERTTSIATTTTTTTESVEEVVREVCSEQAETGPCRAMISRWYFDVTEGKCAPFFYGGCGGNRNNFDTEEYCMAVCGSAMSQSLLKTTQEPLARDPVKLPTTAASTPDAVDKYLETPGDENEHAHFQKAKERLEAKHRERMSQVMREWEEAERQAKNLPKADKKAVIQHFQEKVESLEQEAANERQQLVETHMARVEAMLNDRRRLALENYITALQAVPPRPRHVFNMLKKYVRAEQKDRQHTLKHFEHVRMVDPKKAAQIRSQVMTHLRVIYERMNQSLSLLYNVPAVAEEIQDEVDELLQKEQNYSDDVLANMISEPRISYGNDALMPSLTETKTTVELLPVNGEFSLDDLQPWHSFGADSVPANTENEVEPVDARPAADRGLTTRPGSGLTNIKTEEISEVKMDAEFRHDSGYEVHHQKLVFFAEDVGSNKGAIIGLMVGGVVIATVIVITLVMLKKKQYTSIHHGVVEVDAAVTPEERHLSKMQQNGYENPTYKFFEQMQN

Structure (SMILES)	IC50 [1] [µM]	Ratio IC50 (Homo sapiens)	inhibition [3]	IC50 [4] [µM]	Activity [2] [µMequiv/µM]	inhibition at 10 µM [5] [%]	inhibition at 10 µM [6] [%]
CCCCCC1OC(=O)c2cc(N3N=C(C)CC3=O)ccc21 (stereo unspecified)	12.9	1.5	50.1 to 71.5%	19.3	0.62	–	–
CCCCC1OC(=O)c2cc(N3N=C(C)CC3=O)ccc21 (stereo unspecified)	–	–	50.1 to 71.5%	–	1.03	–	–
CCCCC1OC(=O)c2ccccc21 (racemic) [RAC-3-N-BUTYLPHTHALIDE]	–	–	1.2%	–	0.21	11.2	18.2
CC1=NN(c2ccccc2)C(=O)C1 [EDARAVONE]	–	–	20.1%	–	0.72	< 5	7.29
COc1cc(/C=C/C(=O)CC(=O)/C=C/c2ccc(O)c(OC)c2)ccc1O	–	–	39%	–	–	–	–

More lines, main results first:

IC50 [1] [µM]	Ratio IC50 (Homo sapiens)	inhibition [3]	IC50 [4] [µM]	Structure (SMILES)	Activity [2] [µMequiv/µM]	inhibition at 10 µM [5] [%]	inhibition at 10 µM [6] [%]
–	–	inactive	–	CCCCCC1OC(=O)c2cc(-n3nc(C(F)(F)F)cc3O)ccc21 (stereo unspecified)	2.37	–	–
–	–	inactive	–	CCCCCCC1OC(=O)c2cc(-n3nc(C(F)(F)F)cc3O)ccc21 (stereo unspecified)	2.28	–	–
–	–	50.1 to 71.5%	–	CCCCC1OC(=O)c2cc(-n3nc(C(F)(F)F)cc3O)ccc21 (stereo unspecified)	2.22	–	–
–	–	inactive	–	CCCCCCCC1OC(=O)c2cc(-n3nc(C(F)(F)F)cc3O)ccc21 (stereo unspecified)	2.21	–	–
–	–	71.5%	–	CCCCCCCC1OC(=O)c2cc(N3N=C(C)CC3=O)ccc21 (stereo unspecified)	1.18	–	–
7.59	2	50.1 to 71.5%	15.2	CCCCCCC1OC(=O)c2cc(N3N=C(C)CC3=O)ccc21 (stereo unspecified)	0.85	–	–
